Data published in ChEMBL document CHEMBL6078667, “Synthesis, Biological Evaluation, and Mechanistic Insights of Rubrolide Analogues as Antitumor Agents” (J Nat Prod, 2024).
Activity calls are given as the source filed them. The calls are words filed in the database; no cut-off is given here.

Experiments:
[1] = test system: U-87 MG; assay: Cytotoxicity against human U-87 MG cells assessed as survival rate at 10 uM measured after 72 hrs by MTT assay relative to control; assay type: functional, U-87MG ATCC; conditions: read-out: Survival
[2] = test system: MCF7; assay: Cytotoxicity against human MCF7 cells assessed as survival rate at 10 uM measured after 72 hrs by MTT assay relative to control; assay type: functional; conditions: read-out: Survival
[3] = test system: HCT-116; assay: Cytotoxicity against human HCT-116 cells assessed as inhibition of cell growth at 10 uM measured after 72 hrs by MTT assay relative to control; assay type: functional
[4] = test system: MCF7; assay: Cytotoxicity against human MCF7 cells assessed as inhibition of cell growth at 10 uM measured after 72 hrs by MTT assay relative to control; assay type: functional
[5] = test system: MKN-45; assay: Cytotoxicity against human MKN-45 cells assessed as inhibition of cell growth at 10 uM measured after 72 hrs by MTT assay relative to control; assay type: functional
[6] = test system: HeLa; assay: Cytotoxicity against human HeLa cells assessed as inhibition of cell growth at 10 uM measured after 72 hrs by MTT assay relative to control; assay type: functional
[7] = test system: HeLa; assay: Cytotoxicity against human HeLa cells assessed as inhibition of cell growth incubated for 72 hrs by MTT assay; assay type: functional, cell-based
[8] = test system: HCT-116; assay: Cytotoxicity against human HCT-116 cells assessed as inhibition of cell growth incubated for 72 hrs by MTT assay; assay type: functional, cell-based; conditions: HCT-116, 72 h
[9] = test system: MCF7; assay: Cytotoxicity against human MCF7 cells assessed as inhibition of cell growth incubated for 72 hrs by MTT assay; assay type: functional, cell-based; conditions: MCF7, 72 h
[10] = test system: U-87 MG; assay: Cytotoxicity against human U-87 MG cells assessed as inhibition of cell growth incubated for 72 hrs by MTT assay; assay type: functional, cell-based, U-87MG ATCC
[11] = test system: MKN-45; assay: Cytotoxicity against human MKN-45 cells assessed as inhibition of cell growth incubated for 72 hrs by MTT assay; assay type: functional, cell-based; conditions: MKN-45, 72 h
[12] = Selectivity index, ratio of IC50 for HHL-5 cells to IC50 for human HeLa cells; assay type: toxicity; conditions: HHL-5 cells and HeLa cells, pooled result: one value given for 6 cell lines, strains, targets or settings, read-out: Ratio IC50
[13] = test system: HeLa; assay: Induction of apoptosis in human HeLa cells assessed as viable cells at 0.2 uM incubated for 24 hrs by Annexin V-FITC/PI staining based flow cytometric analysis (reference value: 90.6 %); assay type: functional; conditions: read-out: Activity
[14] = test system: HeLa; assay: Induction of apoptosis in human HeLa cells assessed as early apoptotic cells at 0.2 uM incubated for 24 hrs by Annexin V-FITC/PI staining based flow cytometric analysis (reference value: 2.35 %); assay type: functional
[15] = test system: HeLa; assay: Induction of apoptosis in human HeLa cells assessed as late apoptotic cells at 0.2 uM incubated for 24 hrs by Annexin V-FITC/PI staining based flow cytometric analysis (reference value: 6.58 %); assay type: functional
[16] = test system: HeLa; assay: Induction of apoptosis in human HeLa cells assessed as early apoptotic cells at 0.4 uM incubated for 24 hrs by Annexin V-FITC/PI staining based flow cytometric analysis (reference value: 2.35 %); assay type: functional
[17] = test system: HeLa; assay: Induction of apoptosis in human HeLa cells assessed as late apoptotic cells at 0.4 uM incubated for 24 hrs by Annexin V-FITC/PI staining based flow cytometric analysis (reference value: 6.58 %); assay type: functional
[18] = test system: HCT-116; assay: Induction of apoptosis in human HCT-116 cells assessed as viable cells at 0.2 uM incubated for 24 hrs by Annexin V-FITC/PI staining based analysis (reference value: 92.4 %); assay type: functional; conditions: read-out: Activity
[19] = test system: HCT-116; assay: Induction of apoptosis in human HCT-116 cells assessed as early apoptotic cells at 0.2 uM incubated for 24 hrs by Annexin V-FITC/PI staining based analysis (reference value: 7.40 %); assay type: functional
[20] = test system: HCT-116; assay: Induction of apoptosis in human HCT-116 cells assessed as necrotic cells at 0.2 uM incubated for 24 hrs by Annexin V-FITC/PI staining based analysis (reference value: 0.083 %); assay type: functional
[21] = test system: HCT-116; assay: Induction of apoptosis in human HCT-116 cells assessed as necrotic cells at 0.4 uM incubated for 24 hrs by Annexin V-FITC/PI staining based analysis (reference value: 0.083 %); assay type: functional
[22] = Drug localization in human HeLa cell mitochondria incubated for 8 hrs by Mito-tracker green dye based fluorescence microscopic analysis; assay type: ADME
[23] = Drug localization in human HCT-116 cell mitochondria incubated for 8 hrs by Mito-tracker green dye based fluorescence microscopic analysis; assay type: ADME; conditions: hct-116, 8 h
[24] = Drug localization in human HeLa cell endoplasmic reticulum incubated for 8 hrs by […] dye based fluorescence microscopic analysis; assay type: ADME, subcellular
[25] = Drug localization in human HCT-116 cell endoplasmic reticulum incubated for 8 hrs by […] dye based fluorescence microscopic analysis; assay type: ADME, subcellular; conditions: hct-116, 8 h
[26] = test system: HeLa; assay: Upregulation of phosphorylated PERK expression in human HeLa cells at 0.2 to 0.4 uM measured after 48 hrs by Western blot analysis; assay type: functional, cell-based; conditions: dose 0.2-0.4 µM
[27] = test system: HeLa; assay: Upregulation of CHOP expression in human HeLa cells at 0.2 to 0.4 uM measured after 48 hrs by Western blot analysis; assay type: functional, cell-based; conditions: dose 0.2-0.4 µM
[28] = test system: HCT-116; assay: Upregulation of phosphorylated PERK expression in human HCT-116 cells at 0.2 to 0.4 uM measured after 48 hrs by Western blot analysis; assay type: functional, cell-based; conditions: dose 0.2-0.4 µM
[29] = test system: HCT-116; assay: Upregulation of phosphorylated eIF2alpha expression in human HCT-116 cells at 0.2 to 0.4 uM measured after 48 hrs by Western blot analysis; assay type: functional, cell-based; conditions: dose 0.2-0.4 µM
[30] = test system: HCT-116; assay: Upregulation of CHOP expression in human HCT-116 cells at 0.2 to 0.4 uM measured after 48 hrs by Western blot analysis; assay type: functional, cell-based; conditions: dose 0.2-0.4 µM
[31] = test system: HeLa; assay: Induction of ROS production in human HeLa cells assessed as fold change at 0.2 to 0.4 uM incubated for 24 hrs by DCFH-DA probe based flow cytometric analysis; assay type: functional; conditions: dose 0.2-0.4 µM
[32] = test system: HeLa; assay: Cell cycle arrest in human HeLa cells assessed as accumulation of cells at G0/G1 phase at 0.2 uM measured after 24 hrs by PI staining based flow cytometric analysis (reference value: 54.7 %); assay type: functional
[33] = test system: HeLa; assay: Cell cycle arrest in human HeLa cells assessed as accumulation of cells at G0/G1 phase at 0.4 uM measured after 24 hrs by PI staining based flow cytometric analysis (reference value: 54.7 %); assay type: functional
[34] = test system: HeLa; assay: Cell cycle arrest in human HeLa cells assessed as accumulation of cells at G2/M phase at 0.4 uM measured after 24 hrs by PI staining based flow cytometric analysis (reference value: 22.8 %); assay type: functional
[35] = test system: HCT-116; assay: Cell cycle arrest in human HCT-116 cells assessed as accumulation of cells at G0/G1 phase at 0.4 uM measured after 24 hrs by PI staining based flow cytometric analysis (reference value: 51.3 %); assay type: functional
[36] = test system: HCT-116; assay: Cell cycle arrest in human HCT-116 cells assessed as accumulation of cells at G2/M phase at 0.4 uM measured after 24 hrs by PI staining based flow cytometric analysis (reference value: 26.4 %); assay type: functional
[37] = test system: HCT-116; assay: Cell cycle arrest in human HCT-116 cells assessed as increase in cyclin B1 expression at 0.2 to 0.4 uM incubated for 24 hrs by Western blot analysis; assay type: functional, cell-based; conditions: dose 0.2-0.4 µM
[38] = test system: HeLa; assay: Antitumor activity against human HeLa cells xenografted in female BALB/c nude mouse assessed as reduction in tumor cell weight at 20 mg/kg, ip administered as liposome formulation once daily for 13 days relative to control; assay type: functional; set-up: scale not given: the % may be the effect or the level left; conditions: time 13 day

Compound: COc1ccc(C2=CC(=O)O/C2=C\c2ccc(O)cc2)cc1
- viability at 10 µM [1]: 12.4%
- viability at 10 µM [2]: 24.8%
- inhibition at 10 µM [3]: > 50%
- inhibition at 10 µM [4]: > 50%
- inhibition at 10 µM [5]: > 50%
- inhibition at 10 µM [6]: > 50%
- IC50 [7]: 200 nM
- IC50 [8]: 200 nM
- IC50 [9]: 1000 nM
- IC50 [10]: 2400 nM
- IC50 [11]: 200 nM
- selectivity ratio [12]: 2.6
- viability at 0.2 µM [13]: 83.2%
- Activity [14]: 4.86%
- Activity [15]: 11.5%
- Activity [16]: 10.5%
- Activity [17]: 40.6%
- viability at 0.2 µM [18]: 82.7%
- Activity [19]: 3.69%
- Activity [20]: 5.89%
- Activity [21]: 7.38%
- Drug uptake [22]: Not_active
- Drug uptake [23]: Not_active
- Drug uptake [24]: Active
- Drug uptake [25]: Active
- Activity [26]: Active; Compound Impacts Endoplasmic Reticulum Stress Related Perk-Eif2Alpha-Chop Signalling Pathway
- Activity [27]: Active; Compound Impacts Endoplasmic Reticulum Stress Related Perk-Eif2Alpha-Chop Signalling Pathway
- Activity [28]: Active; Compound Impacts Endoplasmic Reticulum Stress Related Perk-Eif2Alpha-Chop Signalling Pathway
- Activity [29]: Active; Compound Impacts Endoplasmic Reticulum Stress Related Perk-Eif2Alpha-Chop Signalling Pathway
- Activity [30]: Active; Compound Impacts Endoplasmic Reticulum Stress Related Perk-Eif2Alpha-Chop Signalling Pathway
- fold change (FC) [31]: >4
- Activity [32]: 18.8%
- Activity [33]: 8.71%
- Activity [34]: 71.1%
- Activity [35]: 23.2%
- Activity [36]: 31.6%
- Activity [37]: Active
- Activity [38]: 50%
